Measured values reported in PubChem BioAssay (NCI).
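Test compounds were applied to cells in 96-well plates for 48 hours at 5 doses. TGI is the concentration that stops growth completely.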

Assays:
Test in all cases: DTP human tumour cell line panel, 48 h
[1] = test system: SW-620 colon
[2] = test system: CAKI-1 renal
[3] = test system: U251 CNS
[4] = test system: NCI-H460 lung
[5] = test system: BT-549 breast
[6] = test system: MDA-MB-435
[7] = test system: OVCAR-3 ovarian
[8] = test system: SK-OV-3 ovarian
[9] = test system: HCC-2998 colon
[10] = test system: SNB-75 CNS
[11] = test system: CCRF-CEM leukemia
[12] = test system: HOP-62 NSCLC
[13] = test system: T-47D breast
[14] = test system: SNB-19 CNS
[15] = test system: SF-268 CNS
[16] = test system: K-562 leukemia
[17] = test system: SF-539 CNS
[18] = test system: HOP-92 NSCLC
[19] = test system: NCI-H226 lung
[20] = test system: UACC-62 melanoma
[21] = test system: SF-295 CNS
[22] = test system: MCF7 breast
[23] = test system: LOX IMVI melanoma
[24] = test system: A549 NSCLC
[25] = test system: A498 renal
[26] = test system: MDA-MB-231 breast
[27] = test system: MOLT-4 leukemia
[28] = test system: 786-0 renal
[29] = test system: NCI/ADR-RES ovarian
[30] = test system: TK-10 renal
[31] = test system: SK-MEL-28 melanoma
[32] = test system: NCI-H23 lung
[33] = test system: MDA-N
[34] = test system: DU-145 prostate
[35] = test system: UO-31 renal
[36] = test system: RPMI-8226 leukemia
[37] = test system: HS 578T breast
[38] = test system: HCT-116 colon
[39] = test system: EKVX NSCLC
[40] = test system: M14 melanoma
[41] = test system: OVCAR-8 ovarian
[42] = test system: HCT-15 colon
[43] = test system: ACHN renal
[44] = test system: OVCAR-5 ovarian
[45] = test system: SR leukemia
[46] = test system: KM12 colon
[47] = test system: COLO 205 colon
[48] = test system: SN12C renal
[49] = test system: HL-60(TB) leukemia
[50] = test system: MALME-3M melanoma
[51] = test system: SK-MEL-2 melanoma
[52] = test system: OVCAR-4 ovarian
[53] = test system: HT29 colon
[54] = test system: PC-3 prostate
[55] = test system: SK-MEL-5 melanoma
[56] = test system: UACC-257 melanoma

O=C(c1ccccc1)C1N=NCC1c1ccc([N+](=O)[O-])cc1 (stereo unspecified)
TGI [1]: > 100 µM
TGI [2]: 44.5 µM
TGI [3]: > 100 µM
TGI [4]: > 100 µM
TGI [5]: 65.8 µM
TGI [6]: > 100 µM
TGI [7]: 48.4 µM
TGI [8]: > 100 µM
TGI [9]: > 100 µM
TGI [10]: 69.2 µM
TGI [11]: > 100 µM
TGI [12]: > 100 µM
TGI [13]: 30.9 µM
TGI [14]: > 100 µM
TGI [15]: > 100 µM
TGI [16]: > 100 µM
TGI [17]: > 100 µM
TGI [18]: 88.1 µM
TGI [19]: > 100 µM
TGI [20]: > 100 µM
TGI [21]: > 100 µM
TGI [22]: 56.9 µM
TGI [23]: > 100 µM
TGI [24]: > 100 µM
TGI [25]: > 100 µM
TGI [26]: > 100 µM
TGI [27]: 72.9 µM
TGI [28]: > 100 µM
TGI [29]: > 100 µM
TGI [30]: > 100 µM
TGI [31]: > 100 µM
TGI [32]: > 100 µM
TGI [33]: > 100 µM
TGI [34]: > 100 µM
TGI [35]: > 100 µM
TGI [36]: > 100 µM
TGI [37]: > 100 µM
TGI [38]: > 100 µM
TGI [39]: > 100 µM
TGI [40]: > 100 µM
TGI [41]: > 100 µM
TGI [42]: > 100 µM
TGI [43]: > 100 µM
TGI [44]: > 100 µM
TGI [45]: 84.7 µM
TGI [46]: > 100 µM
TGI [47]: > 100 µM
TGI [48]: > 100 µM
TGI [49]: 67.3 µM
TGI [50]: > 100 µM
TGI [51]: > 100 µM
TGI [52]: > 100 µM
TGI [53]: > 100 µM
TGI [54]: > 100 µM
TGI [55]: 59.6 µM
TGI [56]: 88.4 µM
